# Results taken from ChEMBL document CHEMBL3792384, “Design, synthesis and bioactivity of novel phthalimide derivatives as acetylcholinesterase inhibitors” (Bioorg Med Chem Lett, 2016).
# The source made the active and inactive calls. The calls are words filed in the database; no cut-off is given here.
# Target: Acetylcholinesterase (Electrophorus electricus, UniProt O42275)
# Assay: Inhibition of electric eel AChE preincubated for 15 mins followed by addition of acetylthiocholine iodide substrate by Ellman's method-based spectrophotometric analysis
# Acetylcholinesterase, sequence (O42275 whole entry): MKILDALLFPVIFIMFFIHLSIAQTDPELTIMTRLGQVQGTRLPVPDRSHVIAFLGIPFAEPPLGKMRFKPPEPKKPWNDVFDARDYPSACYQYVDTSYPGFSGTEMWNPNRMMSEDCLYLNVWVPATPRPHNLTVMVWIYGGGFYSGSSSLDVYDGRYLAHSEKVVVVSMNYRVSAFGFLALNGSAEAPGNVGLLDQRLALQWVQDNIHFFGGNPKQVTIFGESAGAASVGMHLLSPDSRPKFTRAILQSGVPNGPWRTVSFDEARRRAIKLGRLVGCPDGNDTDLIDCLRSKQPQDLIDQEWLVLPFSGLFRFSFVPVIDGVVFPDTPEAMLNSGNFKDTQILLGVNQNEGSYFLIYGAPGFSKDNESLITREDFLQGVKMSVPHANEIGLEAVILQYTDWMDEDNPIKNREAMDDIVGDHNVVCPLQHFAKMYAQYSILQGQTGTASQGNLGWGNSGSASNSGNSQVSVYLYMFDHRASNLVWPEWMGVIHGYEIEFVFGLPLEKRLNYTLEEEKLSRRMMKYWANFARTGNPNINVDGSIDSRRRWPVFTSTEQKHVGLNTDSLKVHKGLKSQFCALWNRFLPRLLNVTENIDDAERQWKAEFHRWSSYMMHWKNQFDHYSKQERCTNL
row,Compound,IC50
1,O=C1c2ccccc2C(=O)N1C/C=C/CN1CCN(Cc2ccccc2)CC1,13.6 nM
2,COc1ccc(CN2CCN(CCN3C(=O)c4ccccc4C3=O)CC2)cc1,466 nM
3,O=C1c2ccccc2C(=O)N1CCCCCCN1CCN(Cc2ccc(Cl)cc2)CC1,389 nM
4,O=C1c2ccccc2C(=O)N1CCCN1CCN(Cc2ccccc2)CC1,123 nM
5,COc1ccc(CN2CCN(CCCCCCCCCN3C(=O)c4ccccc4C3=O)CC2)cc1,657 nM
6,O=C1c2ccccc2C(=O)N1CCCCCN1CCN(Cc2ccccc2)CC1,35.4 nM
7,COc1ccc(CN2CCN(CCCCN3C(=O)c4ccccc4C3=O)CC2)cc1,403 nM
8,O=C1c2ccccc2C(=O)N1CCN1CCN(Cc2ccc(Cl)cc2)CC1,1100 nM
9,O=C1c2ccccc2C(=O)N1CCCCCCCCN1CCN(Cc2ccccc2)CC1,204 nM
10,O=C1c2ccccc2C(=O)N1CCCCCCCCCCN1CCN(Cc2ccc(Cl)cc2)CC1,1260 nM
11,O=C1c2ccccc2C(=O)N1CCCCCCCCCN1CCN(Cc2ccc(Cl)cc2)CC1,644 nM
12,COc1ccc(CN2CCN(CCCCCN3C(=O)c4ccccc4C3=O)CC2)cc1,548 nM
13,COc1ccc(CN2CCN(C/C=C/CN3C(=O)c4ccccc4C3=O)CC2)cc1,489 nM
14,O=C1c2ccccc2C(=O)N1C/C=C/CN1CCN(Cc2ccc(Cl)cc2)CC1,384 nM
15,O=C1c2ccccc2C(=O)N1CCCCCCN1CCN(Cc2ccccc2)CC1,100 nM
16,O=C1c2ccccc2C(=O)N1CCCN1CCN(Cc2ccc(Cl)cc2)CC1,1430 nM

row,Compound,IC50
1,COc1ccc(CN2CCN(CCCCCCN3C(=O)c4ccccc4C3=O)CC2)cc1,687 nM
2,O=C1c2ccccc2C(=O)N1CCCCN1CCN(Cc2ccc(Cl)cc2)CC1,1420 nM
3,COc1ccc(CN2CCN(CCCCCCCCN3C(=O)c4ccccc4C3=O)CC2)cc1,699 nM
4,O=C1c2ccccc2C(=O)N1CCCCCN1CCN(Cc2ccc(Cl)cc2)CC1,720 nM
5,O=C1c2ccccc2C(=O)N1CCN1CCN(Cc2ccccc2)CC1,91.1 nM
6,COc1ccc(CN2CCN(CCCCCCCCCCN3C(=O)c4ccccc4C3=O)CC2)cc1,712 nM
7,O=C1c2ccccc2C(=O)N1CCCCCCCCCCN1CCN(Cc2ccccc2)CC1,350 nM
8,COc1cc2c(cc1OCCCN1CCN(c3ccccc3OC)CC1)C(C)C(C)C(=O)O2 (stereo not drawn),36 nM
9,O=C1c2ccccc2C(=O)N1CCCCN1CCN(Cc2ccccc2)CC1,18.4 nM
10,O=C1c2ccccc2C(=O)N1CCCCCCCN1CCN(Cc2ccccc2)CC1,53.8 nM
11,O=C1c2ccccc2C(=O)N1CCCCCCCN1CCN(Cc2ccc(Cl)cc2)CC1,655 nM
12,O=C1c2ccccc2C(=O)N1CCCCCCCCN1CCN(Cc2ccc(Cl)cc2)CC1,440 nM
13,O=C1c2ccccc2C(=O)N1CCCCCCCCCN1CCN(Cc2ccccc2)CC1,40.7 nM
14,COc1ccc(CN2CCN(CCCN3C(=O)c4ccccc4C3=O)CC2)cc1,508 nM
15,COc1ccc(CN2CCN(CCCCCCCN3C(=O)c4ccccc4C3=O)CC2)cc1,448 nM

# Target: Cholinesterase (Equus caballus) (UniProt P81908)
# Sequence (P81908 whole entry): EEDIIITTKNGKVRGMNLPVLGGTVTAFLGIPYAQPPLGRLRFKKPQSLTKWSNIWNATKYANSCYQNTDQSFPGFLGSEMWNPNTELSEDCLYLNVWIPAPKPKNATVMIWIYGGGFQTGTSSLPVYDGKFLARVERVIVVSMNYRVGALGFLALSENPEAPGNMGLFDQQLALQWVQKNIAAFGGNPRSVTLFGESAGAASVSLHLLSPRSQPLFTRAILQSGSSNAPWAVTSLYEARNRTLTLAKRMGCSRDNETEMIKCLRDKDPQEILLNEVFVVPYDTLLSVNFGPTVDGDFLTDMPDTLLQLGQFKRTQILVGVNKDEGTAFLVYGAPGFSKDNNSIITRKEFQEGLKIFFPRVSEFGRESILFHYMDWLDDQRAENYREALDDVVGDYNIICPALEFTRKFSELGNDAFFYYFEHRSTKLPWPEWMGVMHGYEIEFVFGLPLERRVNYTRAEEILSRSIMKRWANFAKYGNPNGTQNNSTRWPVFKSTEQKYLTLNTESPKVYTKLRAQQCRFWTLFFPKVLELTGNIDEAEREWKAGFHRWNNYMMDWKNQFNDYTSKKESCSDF
# Assay: (§1) Inhibition of equine serum BChE using butyrylthiocholine iodide as substrate by Ellman's method-based spectrophotometric analysis
row,Compound,inhibition
1,O=C1c2ccccc2C(=O)N1CCCCCCCCN1CCN(Cc2ccccc2)CC1,Active

# Target: Cholinesterase (Equus caballus, UniProt P81908)
# Sequence (P81908 whole entry): as above
# Assay: as §1
row,Compound,IC50
1,O=C1c2ccccc2C(=O)N1CCCCCCCCCN1CCN(Cc2ccccc2)CC1,33.1 nM
